The source made the active and inactive calls.
How the values were obtained:
Format in all cases: functional, organism-based
Mus musculus [1] = assay: Hypocholesterolemic activity in OVX-induced C57BL/6 mouse model assessed as increase in Slcob2 mRNA expression in liver in liver at 150 mg/kg, ig for 4 weeks by qRT-PCR analysis
Mus musculus [2] = assay: Hypocholesterolemic activity in OVX-induced C57BL/6 mouse model assessed as increase in Fasn protein expression in liver at 150 mg/kg, ig for 4 weeks by western blot analysis
Mus musculus [3] = assay: Hypocholesterolemic activity in OVX-induced C57BL/6 mouse model assessed as decrease in Fabp6 mRNA expression in Ileum […] at 150 mg/kg, ig for 4 weeks by qRT-PCR analysis
Mus musculus [4] = assay: Hypocholesterolemic activity in OVX-induced C57BL/6 mouse model assessed as increase in Elovl6 mRNA expression in liver at 150 mg/kg, ig for 4 weeks by qRT-PCR analysis
Mus musculus [5] = assay: Hypocholesterolemic activity in OVX-induced C57BL/6 mouse model assessed as increase in Abcg5 protein expression in liver in liver at 150 mg/kg, ig for 4 weeks by western blot analysis
Mus musculus [6] = assay: Hypocholesterolemic activity in OVX-induced C57BL/6 mouse model assessed as decrease in Slc10a2 mRNA expression in Ileum at 150 mg/kg, ig for 4 weeks by qRT-PCR analysis
Mus musculus [7] = assay: Hypocholesterolemic activity in OVX-induced C57BL/6 mouse model assessed as increase in Slc10a1 mRNA expression in liver in liver at 150 mg/kg, ig for 4 weeks by qRT-PCR analysis
Mus musculus [8] = assay: Hypocholesterolemic activity in OVX-induced C57BL/6 mouse model assessed as increase in Abcg8 protein expression in liver in liver at 150 mg/kg, ig for 4 weeks by western blot analysis
Mus musculus [9] = assay: Hypocholesterolemic activity in OVX-induced C57BL/6 mouse model assessed as increase in Scd1 mRNA expression in liver at 150 mg/kg, ig for 4 weeks by qRT-PCR analysis
Mus musculus [10] = assay: Hypocholesterolemic activity in OVX-induced C57BL/6 mouse model assessed as decrease in number of lipid droplet concentration in liver at 150 mg/kg, ig for 4 weeks by H and E staining based assay
Mus musculus [11] = assay: Hypocholesterolemic activity in OVX-induced C57BL/6 mouse model assessed as increase in HDL-C concentration in serum at 150 mg/kg, ig for 4 weeks
Mus musculus [12] = assay: Hypocholesterolemic activity in OVX-induced C57BL/6 mouse model assessed as decrease in TC concentration in serum at 150 mg/kg, ig for 4 weeks
Mus musculus [13] = assay: Hypocholesterolemic activity in OVX-induced C57BL/6 mouse model assessed as decrease in size of lipid droplet concentration in […] at 150 mg/kg, ig for 4 weeks by H and E staining based assay; conditions: Liver
Mus musculus [14] = assay: Hypocholesterolemic activity in OVX-induced C57BL/6 mouse model assessed as increase in Cyp7b1 mRNA expression in liver in liver at 150 mg/kg, ig for 4 weeks by qRT-PCR analysis
Mus musculus [15] = assay: Hypocholesterolemic activity in OVX-induced C57BL/6 mouse model assessed as increase in ACACa protein expression in liver at 150 mg/kg, ig for 4 weeks by western blot analysis
Mus musculus [16] = assay: Hypocholesterolemic activity in OVX-induced C57BL/6 mouse model assessed as increase in CD36 mRNA expression in liver at 150 mg/kg, ig for 4 weeks by qRT-PCR analysis
Mus musculus [17] = assay: Hypocholesterolemic activity in OVX-induced C57BL/6 mouse model assessed as increase in Abcg8 mRNA expression in liver in liver at 150 mg/kg, ig for 4 weeks by qRT-PCR analysis
Mus musculus [18] = assay: Hypocholesterolemic activity in OVX-induced C57BL/6 mouse model assessed as increase in Abcg5 mRNA expression in liver in liver at 150 mg/kg, ig for 4 weeks by qRT-PCR analysis
Mus musculus [19] = assay: Hypocholesterolemic activity in OVX-induced C57BL/6 mouse model assessed as increase in CD36 protein expression in liver at 150 mg/kg, ig for 4 weeks by western blot analysis
Mus musculus [20] = assay: Hypocholesterolemic activity in OVX-induced C57BL/6 mouse model assessed as increase in Fasn mRNA expression in liver at 150 mg/kg, ig for 4 weeks by qRT-PCR analysis
Mus musculus [21] = assay: Hypocholesterolemic activity in OVX-induced C57BL/6 mouse model assessed as increase in SCD1 protein expression in liver at 150 mg/kg, ig for 4 weeks by western blot analysis
Mus musculus [22] = assay: Hypocholesterolemic activity in OVX-induced C57BL/6 mouse model assessed as increase in Elovl5 mRNA expression in liver at 150 mg/kg, ig for 4 weeks by qRT-PCR analysis
Mus musculus [23] = assay: Hypocholesterolemic activity in OVX-induced C57BL/6 mouse model assessed as decrease in LDL-C concentration in serum at 150 mg/kg, ig for 4 weeks
Mus musculus [24] = assay: Hypocholesterolemic activity in OVX-induced C57BL/6 mouse model assessed as increase in Abcb4 mRNA expression in liver in liver at 150 mg/kg, ig for 4 weeks by qRT-PCR analysis
Mus musculus [25] = assay: Hypocholesterolemic activity in OVX-induced C57BL/6 mouse model assessed as increase in Abcb1a mRNA expression in liver in liver at 150 mg/kg, ig for 4 weeks by qRT-PCR analysis

Measured: Activity

C[C@H]1[C@@H](O)O[C@@H]2O[C@@]3(C)CC[C@H]4[C@H](C)CC[C@@H]1[C@@]24OO3
active: Mus musculus [1] | Mus musculus [2] | Mus musculus [3] | Mus musculus [4] | Mus musculus [5] | Mus musculus [6] | Mus musculus [7] | Mus musculus [8] | Mus musculus [9] | Mus musculus [10] | Mus musculus [11] | Mus musculus [12] | Mus musculus [13] | Mus musculus [14] | Mus musculus [15] | Mus musculus [16] | Mus musculus [17] | Mus musculus [18] | Mus musculus [19] | Mus musculus [20] | Mus musculus [21] | Mus musculus [22] | Mus musculus [23] | Mus musculus [24] | Mus musculus [25]
